In patent US20080140138A1, “Inhibition of inflammatory cytokine production by stimulation of brain muscarinic receptors” (priority 2002, published 2008):
Counter-ions that a name gives are not always drawn.

Key:
LPS-induced serum TNF = LPS-induced serum TNF after i.c.v. drug injection, L929 bioactivity assay; assay type: in vivo, Lewis rats; conditions: i.c.v.; for effect in reducing LPS-induced serum TNF levels: nicotine 10 μg/rat, prozak 0.01 mg/10 g, LPS 15 mg/kg i.v. 1 h later
Experimental: Method of stereotactic intracerebroventricular injections. […] Lewis rats were anaesthetized with urethane (1 g/kg, i.p.) and xylazine (15 mg/rat, i.m. (intramuscular)). Rats were then placed in a stereotactic head frame (Stoelting, Wood Dale, Ill., USA). The incisor bar was adjusted until the plane defined by the lambda and bregma was parallel to the base plate. For i.c.v. injections the needle of a Hamilton syringe (25 μl) was positioned stereotactically above the lateral ventricle (0.2 mm and 1.5 mm posterior to bregma, 3.2 mm below the dura.) Solutions of the drugs tested were prepared in sterile endotoxin-free water, at the specified concentrations, and a 10-μl injection/rat was administered over 2 min, 1 h prior to either carrageenan injection, or to LPS.
In one set of experiments, rats were injected by i.c.v. means with either saline (n=1), CNI-1493 (5 μg/rat, n=3), CNI-1493 plus atropine (5 μg/rat each), or atropine (5 μg/rat). LPS (15 mg/kg, i.v.) was given 1 h later. Blood was collected 2 h post LPS administration. Serum TNF was determined by the L929 assay.

[1] = tested on: carrageenan-induced hindpaw edema; assay: Carrageenan-induced hindpaw edema; assay type: in vivo, Lewis rats
Experimental: Method of determining CNI-1493 receptor binding. CNI-1493 was tested at a single concentration (10 μM) in a panel of receptor binding assays by NovaScreen Biosciences Corporation (Hanover, Md.). Values were expressed as the percent inhibition of specific binding, and represented the average of duplicate tubes. Method of stereotactic intracerebroventricular injections. A rat model of intracerebroventricular (i.c.v.) injections was established in order to be able to directly deliver pharmacological agents into the brain of rats. This was necessary in order to separate drug effects on peripheral inflammation that occurred through central versus peripheral mechanisms. Lewis rats were anaesthetized with urethane (1 g/kg, i.p.) and xylazine (15 mg/rat, i.m. (intramuscular)). Rats were then placed in a stereotactic head frame (Stoelting, Wood Dale, Ill., USA). The incisor bar was adjusted until the plane defined by the lambda and bregma was parallel to the base plate. For i.c.v. injections the needle of a Hamilton syringe (25 μl) was positioned stereotactically above the lateral ventricle (0.2 mm and 1.5 mm posterior to bregma, 3.2 mm below the dura.) Solutions of the drugs tested were prepared in sterile endotoxin-free water, at the specified concentrations, and a 10-μl injection/rat was administered over 2 min, 1 h prior to either carrageenan injection, or to LPS.
The tested drugs, in either the carrageenan and/or LPS experiments, were: saline control; fluoxetine hydrochloride, (also known as Prozak) (0.01 mg/100 g); muscarine (50 μg/rat, 5 μg/rat, 0.5 μg/rat, 0.05 μg/rat, 0.005 μg/rat); 4-(N-[3-chlorophenyl]carbamoyloxy)-2-butynyltrimethylammonium chloride (also known as McN-A-343) (5 μg/rat); Muscarinic Toxin-3, (also known as MT-3) from Dendroaspis angusticeps snake venom (0.37 μg/rat); nicotine (10 μg/rat); CNI-1493 (1 μg/kg, 50 μg/rat); atropine (1 μg/kg, 5 μg/rat); CNI-1493 plus atropine (1 μg/kg of each of the drugs; 50 μg/rat, 5 μg/rat respectively); naloxone hydrochloride (2 μg/rat), CNI-1493 plus naloxone (50 μg/rat+5 μg/rat respectively); and morphine (20 μg/rat).
Method of carrageenan-induced hindpaw edema. Paw edema was induced in anaesthetized rats by injection of 1% solution of 1-carrageenan (100 μl) into the plantar surface of the left hindpaw. The right hindpaw was injected with the same volume of saline alone (as control). The thickness of the carrageenan-treated and saline-treated hindpaw was measured using a caliper at 3 h post carrageenan, and the difference between paw thickness calculated as an index of inflammation (paw swelling). Method of LPS injections and TNF determination. LPS (15 mg/kg, i.v.) was injected in the tail vein 1 h after drug injection. Blood was obtained 2 h post LPS injection by paraorbital bleeding. Serum TNF concentrations were determined by an L929 bioactivity assay. Method of assessing TNF by the L929 bioactivity assay. L929 cells were suspended in Dulbecco's minimal Eagle's medium (DMEM; GibcoBRL) supplemented with fetal bovine serum (10%; Hyclone) and penicillin/streptomycin (0.5%; Sigma Chemical Co.), and plated at 2×10^4 cells per well in 96-well flat-bottomed microtiter plates. After 24 h, media were respirated and replaced with medium containing cycloheximide (10 μg/ml; Sigma Chemical Co.) and the samples to be assayed/TNF standards. Plates were incubated overnight, at which time cell viability as a function of TNF concentration was assessed by the MTT assay. Absorbance values were converted to units per milliliter by comparison with a standard curve for rat TNF.
In a third set of experiments, rats were injected by i.c.v. means with either saline (n=4), CNI-1493 (5 μg/rat, n=3), CNI-1493 plus atropine (5 μg/rat each), or atropine (5 μg/rat). Carrageenan was given to the animals 1 h later, and paw edema was determined 3 h post carrageenan. […]

[2] = tested on: carrageenan-induced paw edema; conditions: low doses, direct administration to the brain; cited from earlier work
LPS-induced TNF = LPS-induced TNF in serum and tissues after muscarine, ELISA; assay type: in vivo, rats; conditions: for LPS-induced heart TNF levels: heart tissue
Experimental: Methods of stereotactic intracerebroventricular injection of muscarine into rats and LPS injections were as described in Example 1. TNF levels in serum and tissues were determined using an enzyme-inked immunosorbent assay (ELISA) according to the manufacturere's instructions (R & D Systems (Minneapolis, Minn.)).
Rats were injected by i.c.v. means with either saline (control) or muscarine (0.005 μg/kg body weight, 0.5 μg/kg body weight, 5.0 μg/kg body weight, or 50 μg/kg body weight). LPS was administered 1 hour later. Two hours after LPS administration the rats were sacrificed and blood, heart tissue, and spleen tissue were isolated from the rats. As shown in FIGS. 9A-9C, i.c.v. administration of muscarine inhibited LPS-induced serum, heart, and spleen (peripheral) TNF levels.
Methods of LPS injections were as described in Example 1. Determination of serum and tissue TNF levels were as described in Example 4. Muscarine (or control saline) was intravenously injected into rats at concentrations of 0.05 μg/kg body weight, 0.5 μg/kg body weight, or 5.0 μg/kg body weight.
Rats were injected by i.v. means with either saline (control) or muscarine (0.05 μg/kg body weight, 0.5 μg/kg body weight, or 5.0 μg/kg body weight). LPS was administered 1 hour later. Two hours after LPS administration the rats were sacrificed and blood, liver tissue, heart tissue, and spleen tissue were isolated from the rats and assayed for TNF concentrations. As shown in FIGS. 10A-10D, intravenous administration of muscarine had no effect on LPS-induced serum, liver, heart, and spleen TNF levels.

[3] = muscarine i.c.v. 0.005-50 μg/kg body weight
[4] = muscarine i.v. 0.05, 0.5, 5.0 μg/kg body weight

With CN1CCCC1c1cccnc1 (stereo not shown) [nicotine] the “effect in reducing LPS-induced serum TNF levels” value (LPS-induced serum TNF) was “Neither nicotine nor prozak had any effect”.

With CNCCC(Oc1ccc(C(F)(F)F)cc1)c1ccccc1 (stereo not shown) [prozak, fluoxetine hydrochloride] the “effect in reducing LPS-induced serum TNF levels” value (LPS-induced serum TNF) was “Neither nicotine nor prozak had any effect”.

In the case of C[N+](C)(C)CC#CCOC(=O)Nc1cccc(Cl)c1.[Cl-] [McN-A-343, 4-(N-[3-chlorophenyl]carbamoyloxy)-2-butynyltrimethylammonium chloride], the “inhibition of paw edema, i.c.v. compared with i.p. administration” value ([1]; 5 μg/rat i.c.v. versus 5 mg/kg i.p.) is reported as “comparable effect on inhibition of carrageenan-induced paw edema as a higher dose administered intraperitoneally” and the “inhibition of carrageenan-induced paw edema” value ([1]; i.c.v., McN-A-343 5 μg/rat, MT-3 0.37 μg/rat) is reported as “significantly inhibits”.

For C[N+](C)(C)CCOC(N)=O [carbachol], the “effect on carrageenan-induced paw edema” value [2] is given as “attenuation of paw edema”.

In the case of CN1[C@@H]2CC[C@H]1C[C@@H](OC(=O)C(CO)c1ccccc1)C2 (stereo partly shown) [atropine], the “effect of atropine on CNI-1493 inhibition of paw edema” value ([1]; CNI-1493 plus atropine, 5 μg/rat each, i.c.v.) is reported as “reverses the effect” and the “effect of atropine on CNI-1493 inhibition of LPS-induced serum TNF” value (LPS-induced serum TNF; CNI-1493 plus atropine, 5 μg/rat each) is reported as “reversed the inhibitory effect of CNI-1493 to the TNF level of atropine alone”.

With C[C@@H]1O[C@H](C[N+](C)(C)C)C[C@H]1O [muscarine] the “LPS-induced heart TNF levels” value (LPS-induced TNF; [3]) was “inhibited”, the “LPS-induced serum TNF levels” value (LPS-induced TNF; [3]) was “inhibited” and the “LPS-induced spleen TNF levels” value (LPS-induced TNF; [3]) was “inhibited”. The “LPS-induced heart TNF levels” value (LPS-induced TNF; [4]) was “no effect”, the “LPS-induced liver TNF levels” value (LPS-induced TNF; muscarine i.v. 0.05, 0.5, 5.0 μg/kg body weight, liver) was “no effect” and the “LPS-induced serum TNF levels” value (LPS-induced TNF; [4]) was “no effect”. The “LPS-induced spleen TNF levels” value (LPS-induced TNF; [4]) was “no effect”, the “effect of vagotomy on muscarine inhibition of paw edema” value ([1]; muscarine 0.5 μg/rat i.c.v., bilateral cervical vagotomy, P=0.015 SAL v. MUS, P=0.039 MUS v. MUS-VGX) was “Vagotomy clearly abrogates the inhibitory effects” and the “inhibition of carrageenan-induced paw edema” value ([1]; muscarine i.c.v. 5, 0.5, 0.05, 0.005 μg/rat) was “significantly inhibits carrageenan-induced paw edema in a dose-dependent manner”.
